Measurements: PubChem BioAssay (NCI)
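In this assay, cells in 96-well plates receive the compound at five concentrations for 48 hours. Endpoints are linearly interpolated between the surrounding concentrations. Here, GI50 denotes the concentration required for 50% inhibition of growth. TGI: concentration producing complete growth inhibition.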

What was measured:
Test in all cases: inhibition of tumour cell growth, NCI panel, 48 h
[1] = tested on: CCRF-CEM leukemia
[2] = tested on: EKVX NSCLC
[3] = tested on: HCC-2998 colon
[4] = tested on: HT29 colon
[5] = tested on: IGROV1 ovarian
[6] = tested on: KM12 colon
[7] = tested on: RXF 393 renal
[8] = tested on: SK-MEL-5 melanoma
[9] = tested on: SNB-19 CNS
[10] = tested on: UO-31 renal

Row | Compound | TGI [1] [µM] | TGI [2] [µM] | TGI [3] [µM] | TGI [4] [µM] | TGI [5] [µM] | TGI [6] [µM] | TGI [7] [µM] | TGI [8] [µM] | TGI [9] [µM] | TGI [10] [µM] | GI50 [1] [µM] | GI50 [2] [µM] | GI50 [3] [µM] | GI50 [4] [µM] | GI50 [5] [µM] | GI50 [6] [µM] | GI50 [7] [µM] | GI50 [8] [µM] | GI50 [9] [µM] | GI50 [10] [µM]
1 | O/N=C/c1ccc(O)c(O)c1 | > 100 | > 100 | > 100 | > 100 | > 100 | > 100 | > 100 | > 100 | > 100 | > 100 |  |  |  |  |  |  |  |  |  | 
2 | CC1SC(c2ccc(Cl)cc2Cl)N(NC(=O)C(O)c2ccccc2)C1=O (stereo not given) | > 100 | > 100 | > 100 | > 100 | 76.9 | > 100 | > 100 | > 100 | > 100 | > 100 | 65.4 | 68.8 | > 100 | 41.9 | 22.7 | 51.2 | 42.9 | 58.6 | > 100 | 48.9
3 | COc1cc(CNc2oc(-c3ccccc3)c(-c3ccccc3)c2C#N)cc(CN2CCN(C)CC2)c1O | 10 | 3.59 | 3.36 | 3.99 | 3.25 | 3.55 | 2.95 | 3.05 | 3.33 | 2.62 | 2.85 | 1.81 | 1.79 | 1.92 | 1.58 | 1.9 | 1.41 | 1.62 | 1.81 | 1.23
4 | O=C(Nc1cccc(C(F)(F)F)c1)Oc1ccc(Cl)c2cccnc12 | 16.1 | 6.88 | 12.8 | 14.1 | 4.43 | 13.4 | 5.49 | 2.88 | > 32.8 | 5.39 | 0.708 | 1.83 | 3.51 | 3.9 | 1.22 | 3.94 | 1.2 | 1.31 | 2.52 | 1.06
5 | O=c1[nH]c(=O)n(C2CC(O)C(CO)O2)cc1C(F)(F)F (stereo not given) | > 100 | > 100 | > 100 | > 100 | > 100 | > 100 | > 100 | > 100 | > 100 | > 100 | 0.557 | > 54.1 | 11.3 | 33.8 | 9.02 | > 100 | 9.38 | 0.399 | 2.96 | 1.75
6 | Cc1cc(O)c(-c2ccc([C@@H](C)CN(C)C)cc2)c2c1[nH]c(=O)c1sccc12 | > 41.9 | 6.23 | 12.6 | 7.81 | 5.16 | 6.71 | 0.53 | 3.98 | 23.3 | 1.88 | 1.77 | 0.585 | 1.06 | 2.76 | 0.534 | 0.482 | 0.167 | 0.805 | 0.724 | 0.287
7 | O=C1Nc2cc(F)ccc2C1=O | > 100 | > 100 | > 100 | > 100 | > 100 | > 100 | > 100 | > 100 | > 100 | > 100 |  |  |  |  |  |  |  |  |  | 
8 | CC(=O)Oc1ccc2c(c1)C(=O)c1nc(C)c(C)nc1C2=O | > 100 | > 78.6 | > 100 | > 91.7 | > 100 | > 100 | 96.4 | 30.1 | > 93.8 | > 100 |  |  |  |  |  |  |  |  |  | 
9 | CNC(=O)c1cncc(/C=C/c2ccccc2Cl)c1 | > 25 | > 25 | > 25 | > 25 | > 25 | > 25 | > 25 | > 25 | > 25 | > 25 | > 25 | > 25 | > 25 | > 25 | > 25 | > 25 | > 25 | > 25 | > 25 | > 23.6
10 | N#Cc1cccc(C2C3=C(COC3=O)N(CCO)c3cc4c(cc32)OCO4)c1 (stereo not given) | > 50 | > 50 | > 50 | > 50 | > 50 | > 50 | 4.54 | > 50 | > 50 | > 50 | 1.53 | 2.78 | 4.6 | 1.49 | 8.08 | 1.74 | 1.26 | 1.07 | 2.69 | 2.63
11 | c1ccc(OC2=NC3=S(S2)SC(Oc2ccccc2)=N3)cc1 | 28.9 | 48.3 | 35.2 | 40.2 | 44.7 | 34.4 | 24.2 | 36.3 | 45.1 | 36.3 |  |  |  |  |  |  |  |  |  | 
